# According to PubChem BioAssay (NCI):
# “And” between values parts separate entries of the source, which are not always exact repeats. Equal values may be shown once.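 These data come from cells grown in 96-well plates and exposed to compound for 48 hours at five concentrations. GI50 is the concentration that inhibits growth by half. TGI: concentration producing complete growth inhibition.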
# Experiments:
# Assay in all cases: NCI-60 cell line screen, 48 h
# ACHN renal = test system: ACHN renal
# HCT-116 colon = test system: HCT-116 colon
# HL-60(TB) leukemia = test system: HL-60(TB) leukemia
# LOX IMVI melanoma = test system: LOX IMVI melanoma
# MALME-3M melanoma = test system: MALME-3M melanoma
# SF-268 CNS = test system: SF-268 CNS
# SF-295 CNS = test system: SF-295 CNS
# SK-OV-3 ovarian = test system: SK-OV-3 ovarian
# T-47D breast = test system: T-47D breast
# U251 CNS = test system: U251 CNS
Structure (SMILES),GI50 (ACHN renal),TGI (ACHN renal),GI50 (HCT-116 colon),TGI (HCT-116 colon),GI50 (HL-60(TB) leukemia),TGI (HL-60(TB) leukemia),GI50 (LOX IMVI melanoma),TGI (LOX IMVI melanoma),GI50 (MALME-3M melanoma),TGI (MALME-3M melanoma),GI50 (SF-268 CNS),TGI (SF-268 CNS),GI50 (SF-295 CNS),TGI (SF-295 CNS),GI50 (SK-OV-3 ovarian),TGI (SK-OV-3 ovarian),GI50 (T-47D breast),TGI (T-47D breast),GI50 (U251 CNS),TGI (U251 CNS)
Oc1ccc2oc3ncc(Cl)c(-c4ccccc4)c3c2c1,> 100 µM,> 100 µM,> 100 µM,> 100 µM,> 100 µM,> 100 µM,> 100 µM,> 100 µM,> 100 µM,> 100 µM,> 100 µM,> 100 µM,> 100 µM,> 100 µM,> 100 µM,> 100 µM,> 100 µM,> 100 µM,> 100 µM,> 100 µM
COc1ccc(-c2nn(-c3cccc(Cl)c3)cc2C=C(C#N)C#N)cc1,2.64 µM,8.82 µM,1.73 µM,4.44 µM,2.39 µM,6.37 µM,2.08 µM,4.81 µM,2.66 µM,7.76 µM,2.5 µM,9.14 µM,2.31 µM,5.31 µM,2.66 µM,5.72 µM,3.34 µM,21.8 µM,1.59 µM,3.33 µM
O=C(c1ccccc1Nc1ccnc(C(F)(F)F)c1)N1CCN(c2cccc(Cl)c2)CC1,22.9 µM,86.1 µM,12.2 µM,29 µM,16.2 µM,59 µM,15.8 µM,32.2 µM,23.1 µM,69.3 µM,29.3 µM,> 100 µM,16.5 µM,65.6 µM,28.3 µM,92.5 µM,10.7 µM,74.4 µM,24.5 µM,99.4 µM
CC1(C)CCC[C@]23C(=O)O[C@](O)(C(=O)C4=C[C@@](C)(/C=C/CCCc5ccc6ccc7cccc8ccc5c6c78)CC[C@@]42O)[C@@H]13,0.156 µM,0.29 µM,0.132 µM,0.299 µM,0.248 µM,0.649 µM,0.164 µM,0.31 µM,0.177 µM,0.332 µM,0.208 µM,0.498 µM,0.178 µM,0.336 µM,0.178 µM,0.324 µM,0.167 µM,0.422 µM,0.17 µM,0.344 µM
O=C1c2ccccc2C(=O)c2c1ccc(C(Br)Br)c2[N+](=O)[O-],1.53 µM,2.86 µM,0.739 µM,2.19 µM,1.87 µM,4.22 µM,1.27 µM,2.59 µM,1.94 µM,3.71 µM,1.57 µM,3.17 µM,3.7 µM,15.7 µM,14.1 µM,27.1 µM,1.63 µM,3.89 µM,1.6 µM,2.97 µM
CN(C)c1ccc(/C=C2\C[C@H]3[C@@H]4CC=C5C[C@@H](N6CCCC6)CC[C@]5(C)[C@H]4CC[C@]3(C)[C@H]2O)cc1,1.82 µM,1.71 µM and 3.34 µM,2.1 µM,1.7 µM and 4.67 µM,2.3 µM,2.31 µM and 4.86 µM,2.25 µM,1.57 µM and 4.72 µM,2.55 µM,1.69 µM and 8.35 µM,2.93 µM,2.4 µM and 9.84 µM,8.18 µM,2.99 µM and 23.1 µM,14.7 µM,13 µM and > 100 µM,2.33 µM,2.33 µM and 6.03 µM,1.78 µM,1.92 µM and 3.31 µM
COc1ccc(N2CCN(C(=O)c3ccccc3Nc3ccnc(C(F)(F)F)c3)CC2)cc1,> 100 µM,> 100 µM,37.7 µM,> 100 µM,32.3 µM,> 100 µM,60.1 µM,> 100 µM,> 100 µM,> 100 µM,> 100 µM,> 100 µM,40.5 µM,> 100 µM,> 100 µM,> 100 µM,9.23 µM,96.7 µM,83.9 µM,> 100 µM
CC(C)C[C@H](NC(=O)[C@H](CCc1ccccc1)NC(=O)CN1CCOCC1)C(=O)N[C@@H](Cc1ccccc1)C(=O)N[C@@H](CC(C)C)C(=O)[C@@]1(C)CO1,0.0366 µM,2.66 µM,< 0.01 µM,< 0.0125 µM,0.0268 µM,0.093 µM,< 0.01 µM,0.0135 µM,0.0527 µM,0.586 µM,< 0.01 µM,0.252 µM,< 0.01 µM,0.0561 µM,0.0253 µM,0.282 µM,< 0.0128 µM,0.028 µM,< 0.0127 µM,0.0632 µM
C[C@]12O[C@H](C[C@]1(O)CO)n1c3ccccc3c3c4c(c5c6ccccc6n2c5c31)CNC4=O,0.0222 µM and 0.0168 µM,> 6.5 µM and 3.13 µM,0.0291 µM and 0.0408 µM,,0.233 µM and 0.0928 µM,> 2.31 µM and 1.23 µM,0.0531 µM and 0.13 µM,1.11 µM and 1.29 µM,0.0324 µM and 0.0298 µM,1.35 µM and 1.27 µM,0.209 µM and 0.222 µM,2.56 µM and 2.86 µM,0.171 µM and 0.101 µM,2.45 µM and 2.02 µM,0.0183 µM and 0.0214 µM,0.146 µM and 0.521 µM,0.0791 µM and 0.337 µM,1.55 µM and 2.16 µM,0.808 µM and 0.523 µM,3.58 µM and 2.95 µM
C(=N\Nc1nnc2c(n1)[nH]c1ccccc12)/c1cccnc1,,> 100 µM,,> 100 µM,,> 100 µM,,> 100 µM,,> 100 µM,,> 100 µM,,> 100 µM,,> 100 µM,,> 100 µM,,> 100 µM
COc1ccc(C(=O)c2cc(OC)c(OC)c(OC)c2)cc1OC(C)=O,0.0379 µM,> 100 µM,0.0297 µM,> 100 µM,< 0.0141 µM,< 0.0228 µM,0.022 µM,> 100 µM,35.4 µM,> 100 µM,0.0883 µM,> 100 µM,0.0796 µM,> 100 µM,0.0817 µM,> 100 µM,19.9 µM,> 100 µM,0.0392 µM,> 100 µM
Cn1nc(C(F)(F)F)c(-c2ccc(Cl)c(C(F)(F)F)c2)c1-c1ccc(OCc2ccc(Cl)cc2)cc1O,1.61 µM,5.03 µM,1.5 µM,5.46 µM,1.4 µM,3.5 µM,1.58 µM,5.73 µM,1.39 µM,4.96 µM,1.77 µM,7.52 µM,1.64 µM,5.59 µM,1.42 µM,4.32 µM,1.27 µM,5.32 µM,1.66 µM,5.62 µM
O=[N+]([O-])c1cccc([N+](=O)[O-])c1S(=O)(=O)c1ccccc1,,3.92 µM,,4.04 µM,,7.48 µM,,3.7 µM,,6.19 µM,,29 µM,,31.8 µM,,31.2 µM,,4.8 µM,,23 µM
O=C1c2ccccc2C(=O)c2c(NCCCNCCO)ccc(NCCCNCCO)c21,,25.5 µM,,16.8 µM,,33.8 µM,,14.9 µM,,27.9 µM,,17.9 µM,,31.9 µM,,58.7 µM,,68.2 µM,,23.3 µM
CCSc1oc(-c2ccccc2)nc1[P+](c1ccccc1)(c1ccccc1)c1ccccc1,0.309 µM,1.13 µM,0.218 µM,3.42 µM,0.149 µM,0.469 µM,0.184 µM,0.412 µM,0.287 µM,1.3 µM,0.331 µM,4.02 µM,0.241 µM,0.739 µM,0.275 µM,0.977 µM,0.0686 µM,1.15 µM,0.163 µM,4.61 µM
Nc1ncnc2c1c(C(F)(F)F)cn2[C@@H]1O[C@H](CO)[C@@H](O)[C@H]1O,0.183 µM,> 100 µM,0.213 µM,> 100 µM,0.212 µM,0.492 µM,0.051 µM,> 100 µM,0.104 µM,2.51 µM,1.19 µM,> 26.3 µM,0.442 µM,> 23.3 µM,2.49 µM,> 100 µM,0.104 µM,70.8 µM,1.33 µM,> 89.6 µM
Cc1ccc(Cl)cc1Nc1nc(C(F)(F)F)ccc1C(=O)Nc1cccc(C(F)(F)F)c1,2.95 µM,12.8 µM,2.39 µM,10.3 µM,3.61 µM,10.5 µM,3.73 µM,13.2 µM,3.04 µM,12.4 µM,3.59 µM,13.8 µM,3.65 µM,18.4 µM,1.74 µM,5.47 µM,2.23 µM,8.95 µM,3.68 µM,14.5 µM
CCCS(=O)(=O)Nc1ccc(F)c(C(=O)c2c[nH]c3ncc(-c4ccc(Cl)cc4)cc23)c1F,3.92 µM and 4.77 µM,15.9 µM and > 10 µM,4.46 µM and 5.81 µM,16.9 µM and > 10 µM,3.64 µM and > 10 µM,12.2 µM and > 10 µM,1.47 µM and 1.27 µM,15.2 µM and > 10 µM,0.0161 µM and 0.0331 µM,0.0772 µM,6.09 µM and 6.67 µM,23.6 µM and > 10 µM,2.62 µM and 3.17 µM,11.5 µM and > 10 µM,4.19 µM and 3.38 µM,19 µM and > 10 µM,5.34 µM and 5.13 µM,24.8 µM and > 10 µM,3.37 µM and 4.02 µM,15.9 µM and > 10 µM
CCOC(=O)c1sc(-c2ccc(OS(=O)(=O)c3cccs3)c(C=O)c2)nc1C,2.06 µM,5.88 µM,0.732 µM,2.15 µM,1.89 µM,4.93 µM,1.77 µM,3.33 µM,2.22 µM,5.69 µM,1.91 µM,4.42 µM,1.72 µM,3.36 µM,3.25 µM,7.79 µM,1.21 µM,5.02 µM,1.19 µM,2.83 µM
CC[C@@]1(O)C(=O)NCc2c1cc1n(c2=O)Cc2cc3ccccc3nc2-1,0.578 µM,,2.75 µM,> 74.2 µM,1.33 µM,> 24 µM,2.06 µM,> 100 µM,83.9 µM,> 100 µM,0.706 µM,> 100 µM,0.575 µM,13.2 µM,8.68 µM,> 100 µM,2.63 µM,> 100 µM,2.39 µM,> 42.8 µM
COc1ccc(-c2oc(=O)ccc2C#Cc2cc(OC)c(OC)c(OC)c2)cc1O,11.6 µM,44.3 µM,18.6 µM,> 100 µM,8.96 µM,35.7 µM,24.2 µM,> 100 µM,71.8 µM,> 100 µM,15.7 µM,58.5 µM,12.8 µM,75.4 µM,30.7 µM,> 100 µM,30.7 µM,> 100 µM,13.5 µM,50.6 µM
CN1/C(=C\C(I)C(I)C2=[N+](C)c3ccccc3C2(C)C)C(C)(C)c2ccccc21 (stereo not drawn),0.665 µM,26.4 µM,0.0852 µM,11.6 µM,0.178 µM,0.651 µM,0.295 µM,13.4 µM,0.277 µM,14 µM,0.479 µM,19.1 µM,0.192 µM,2.48 µM,0.247 µM,1.6 µM,0.0852 µM,9.39 µM,0.262 µM,15.7 µM
CC(CN=C(CC(=O)c1ccc(Br)cc1)c1ccccc1)N=C(CC(=O)c1ccc(Br)cc1)c1ccccc1 (stereo not drawn),48 µM,> 100 µM,2.75 µM,> 100 µM,17.2 µM,68 µM,66.1 µM,> 100 µM,23.3 µM,> 100 µM,29.9 µM,> 100 µM,29.2 µM,> 100 µM,9.05 µM,> 100 µM,3.09 µM,> 100 µM,> 100 µM,> 100 µM
S=c1nc(-c2nc(=S)[nH]c3c2CCCCCCCCCC3)c2c([nH]1)CCCCCCCCCC2,,> 100 µM,,> 100 µM,,> 100 µM,,> 100 µM,,> 100 µM,,> 100 µM,,> 100 µM,,> 100 µM,,> 100 µM,,> 100 µM
Cc1ccc2nc3c(C)c(Cl)c(=O)cc-3sc2c1,,87.3 µM,,58 µM,,26.7 µM,,33.6 µM,,> 71.5 µM,,> 100 µM,,81.3 µM,,> 100 µM,,> 100 µM,,> 91.5 µM
O=C1NC(=O)/C(=C/C=C/c2ccccc2)S1,0.655 µM,> 37 µM,2.36 µM,18.6 µM,1.27 µM,9.58 µM,0.999 µM,14.7 µM,12.3 µM,> 82.4 µM,2.96 µM,> 70.2 µM,0.576 µM,6.35 µM,38.7 µM,> 100 µM,12.8 µM,> 100 µM,0.693 µM,18.1 µM
